According to ChEMBL document CHEMBL3046126, “Synthesis and Herbicidal Activity of New Oxazolidinedione Derivatives” (J Pestic Sci, 1999):

Tests used:
[1] = system: Lindernia procumbens; test: Pre-emergence herbicidal activity against Lindernia procumbens assessed as phytotoxic weed control visual ratings at 25 g ai/ha measured after 14 days post treatment under flooded conditions; format: functional
[2] = system: Amaranthus viridis; test: Pre-emergence herbicidal activity against Amaranthus viridis assessed as phytotoxic weed control visual ratings at 500 g ai/ha measured after 14 days post treatment under upland field conditions; format: functional
[3] = system: Elatine triandra; test: Pre-emergence herbicidal activity against Elatine triandra assessed as phytotoxic weed control visual ratings at 25 g ai/ha measured after 14 days post treatment under flooded conditions; format: functional
[4] = system: Oryza sativa; test: Pre-emergence phytotoxicity against Oryza sativa cv. Koshihikari (rice) assessed as phytotoxic crop injury visual ratings at 25 g ai/ha measured after 14 days post treatment under flooded conditions; format: organism-based; conditions: in vivo, other, 336 h
[5] = system: Schoenoplectiella juncoides; test: Pre-emergence herbicidal activity against Schoenoplectiella juncoides assessed as phytotoxic weed control visual ratings at 25 g ai/ha measured after 14 days post treatment under flooded conditions; format: functional
[6] = system: Digitaria ciliaris; test: Pre-emergence herbicidal activity against Digitaria ciliaris assessed as phytotoxic weed control visual ratings at 500 g ai/ha measured after 14 days post treatment under upland field conditions; format: functional
[7] = system: Zea mays; test: Pre-emergence phytotoxicity against Zea mays (maize) assessed as phytotoxic crop injury visual ratings at 500 g ai/ha measured after 14 days post treatment under upland field conditions; format: organism-based; conditions: in vivo, other, 336 h
[8] = system: Cyperus difformis; test: Pre-emergence herbicidal activity against Cyperus difformis assessed as phytotoxic weed control visual ratings at 25 g ai/ha measured after 14 days post treatment under flooded conditions; format: functional
[9] = system: Echinochloa crus-galli; test: Pre-emergence herbicidal activity against Echinochloa crus-galli (barnyard grass) assessed as phytotoxic weed control visual ratings at 500 g ai/ha measured after 14 days post treatment under upland field conditions; format: functional
[10] = system: Echinochloa oryzicola; test: Pre-emergence herbicidal activity against Echinochloa oryzicola assessed as phytotoxic weed control visual ratings at 25 g ai/ha measured after 14 days post treatment under flooded conditions; format: functional
[11] = system: Pontederia vaginalis; test: Pre-emergence herbicidal activity against Monochoria vaginalis assessed as phytotoxic weed control visual ratings at 25 g ai/ha measured after 14 days post treatment under flooded conditions; format: functional
[12] = system: Rotala indica; test: Pre-emergence herbicidal activity against Rotala indica assessed as phytotoxic weed control visual ratings at 25 g ai/ha measured after 14 days post treatment under flooded conditions; format: functional
[13] = system: Chenopodium album; test: Pre-emergence herbicidal activity against Chenopodium album assessed as phytotoxic weed control visual ratings at 500 g ai/ha measured after 14 days post treatment under upland field conditions; format: functional
[14] = system: Lindernia procumbens; test: Pre-emergence herbicidal activity against Lindernia procumbens assessed as phytotoxic weed control visual ratings at 1.25 kg ai/ha measured after 14 days post treatment under flooded conditions; format: functional
[15] = system: Pontederia vaginalis; test: Pre-emergence herbicidal activity against Monochoria vaginalis assessed as phytotoxic weed control visual ratings at 1.25 kg ai/ha measured after 14 days post treatment under flooded conditions; format: functional
[16] = system: Echinochloa oryzicola; test: Pre-emergence herbicidal activity against Echinochloa oryzicola assessed as phytotoxic weed control visual ratings at 1.25 kg ai/ha measured after 14 days post treatment under flooded conditions; format: functional
[17] = system: Rotala indica; test: Pre-emergence herbicidal activity against Rotala indica assessed as phytotoxic weed control visual ratings at 1.25 kg ai/ha measured after 14 days post treatment under flooded conditions; format: functional
[18] = system: Elatine triandra; test: Pre-emergence herbicidal activity against Elatine triandra assessed as phytotoxic weed control visual ratings at 1.25 kg ai/ha measured after 14 days post treatment under flooded conditions; format: functional
[19] = system: Cyperus difformis; test: Pre-emergence herbicidal activity against Cyperus difformis assessed as phytotoxic weed control visual ratings at 1.25 kg ai/ha measured after 14 days post treatment under flooded conditions; format: functional
[20] = system: Schoenoplectiella juncoides; test: Pre-emergence herbicidal activity against Schoenoplectiella juncoides assessed as phytotoxic weed control visual ratings at 1.25 kg ai/ha measured after 14 days post treatment under flooded conditions; format: functional
[21] = system: Oryza sativa; test: Pre-emergence phytotoxicity against Oryza sativa cv. Koshihikari (rice) assessed as phytotoxic crop injury visual ratings at 1.25 kg ai/ha measured after 14 days post treatment under flooded conditions; format: organism-based; conditions: in vivo, other, 336 h
[22] = system: Rotala indica; test: Pre-emergence herbicidal activity against Rotala indica assessed as phytotoxic weed control visual ratings at 2.5 kg ai/ha measured after 14 days post treatment under flooded conditions; format: functional
[23] = system: Oryza sativa; test: Pre-emergence phytotoxicity against Oryza sativa cv. Koshihikari (rice) assessed as phytotoxic crop injury visual ratings at 2.5 kg ai/ha measured after 14 days post treatment under flooded conditions; format: organism-based; conditions: in vivo, other, 336 h
[24] = system: Pontederia vaginalis; test: Pre-emergence herbicidal activity against Monochoria vaginalis assessed as phytotoxic weed control visual ratings at 2.5 kg ai/ha measured after 14 days post treatment under flooded conditions; format: functional
[25] = system: Elatine triandra; test: Pre-emergence herbicidal activity against Elatine triandra assessed as phytotoxic weed control visual ratings at 2.5 kg ai/ha measured after 14 days post treatment under flooded conditions; format: functional
[26] = system: Cyperus difformis; test: Pre-emergence herbicidal activity against Cyperus difformis assessed as phytotoxic weed control visual ratings at 2.5 kg ai/ha measured after 14 days post treatment under flooded conditions; format: functional
[27] = system: Schoenoplectiella juncoides; test: Pre-emergence herbicidal activity against Schoenoplectiella juncoides assessed as phytotoxic weed control visual ratings at 2.5 kg ai/ha measured after 14 days post treatment under flooded conditions; format: functional
[28] = system: Echinochloa oryzicola; test: Pre-emergence herbicidal activity against Echinochloa oryzicola assessed as phytotoxic weed control visual ratings at 2.5 kg ai/ha measured after 14 days post treatment under flooded conditions; format: functional
[29] = system: Lindernia procumbens; test: Pre-emergence herbicidal activity against Lindernia procumbens assessed as phytotoxic weed control visual ratings at 2.5 kg ai/ha measured after 14 days post treatment under flooded conditions; format: functional

Structure (SMILES)	Phytotoxicity [1] [%]	Phytotoxicity [2] [%]	Phytotoxicity [3] [%]	Phytotoxicity [4] [%]	Phytotoxicity [5] [%]	Phytotoxicity [6] [%]	Phytotoxicity [7] [%]	Phytotoxicity [8] [%]	Phytotoxicity [9] [%]	Phytotoxicity [10] [%]	Phytotoxicity [11] [%]	Phytotoxicity [12] [%]	Phytotoxicity [13] [%]	Phytotoxicity [14] [%]	Phytotoxicity [15] [%]	Phytotoxicity [16] [%]	Phytotoxicity [17] [%]	Phytotoxicity [18] [%]	Phytotoxicity [19] [%]	Phytotoxicity [20] [%]	other results
CCC(C)Oc1cc(N2C(=O)OC(=C(C)C)C2=O)c(F)cc1Cl (stereo not given)	100	90	100	10	100	80	0	100	20	80	100	100	10	–	–	–	–	–	–	–	–
CCC(CC)=C1OC(=O)N(c2ccc(Cl)cc2)C1=O	–	–	–	–	–	–	–	–	–	–	–	–	–	100	90	10	100	100	100	30	Phytotoxicity [21]: 0%
CCCCCC/C(C)=C1/OC(=O)N(c2ccc(Cl)cc2)C1=O	–	–	–	–	–	–	–	–	–	–	–	–	–	4	50	10	4	4	80	10	Phytotoxicity [21]: 0%
CC(C)=C1OC(=O)N(c2c(Cl)cc(Cl)cc2Cl)C1=O	–	–	–	–	–	–	–	–	–	–	–	–	–	–	–	–	–	–	–	–	Phytotoxicity [22]: 100%; Phytotoxicity [23]: 0%; Phytotoxicity [24]: 100%; Phytotoxicity [25]: 100%; Phytotoxicity [26]: 100%; Phytotoxicity [27]: 20%; Phytotoxicity [28]: 30%; Phytotoxicity [29]: 100%
O=C1OC(=C2CCCCC2)C(=O)N1c1ccc(Cl)cc1	–	–	–	–	–	–	–	–	–	–	–	–	–	100	10	10	100	100	100	80	Phytotoxicity [21]: 0%
CCOc1cc(N2C(=O)OC(=C(C)C)C2=O)c(F)cc1Cl	100	100	100	10	60	90	10	100	50	30	100	100	90	–	–	–	–	–	–	–	–
CC(C)=C1OC(=O)N(c2cc(O)c(Cl)cc2F)C1=O	10	0	10	0	0	0	0	30	0	0	10	10	10	–	–	–	–	–	–	–	–
COc1cc(N2C(=O)OC(=C(C)C)C2=O)c(F)cc1Cl	100	80	100	0	10	90	30	100	60	30	80	100	90	–	–	–	–	–	–	–	–
C=C(C)C1(C)OC(=O)N(c2cc(Cl)cc(Cl)c2)C1=O (stereo not given)	–	–	–	–	–	–	–	–	–	–	–	–	–	–	–	–	–	–	–	–	Phytotoxicity [22]: 60%; Phytotoxicity [23]: 0%; Phytotoxicity [24]: 30%; Phytotoxicity [25]: 60%; Phytotoxicity [26]: 30%; Phytotoxicity [27]: 20%; Phytotoxicity [28]: 80%; Phytotoxicity [29]: 60%
CC/C(C)=C1/OC(=O)N(c2ccc(Cl)cc2)C1=O	–	–	–	–	–	–	–	–	–	–	–	–	–	100	100	100	100	100	100	100	Phytotoxicity [21]: 20%
